Consider 16 compounds from ChEMBL document CHEMBL1146889, “Homo-cysteinyl peptide inhibitors of the L1 metallo-beta-lactamase, and SAR as determined by combinatorial library synthesis” (Bioorg Med Chem Lett, 2006).

For one assay, the target named is Beta-lactamase L1 (Stenotrophomonas maltophilia, UniProt P52700). The assay can be described thus: Inhibition of Stenotrophomonas maltophilia L1 metallo beta lactamase.
Assay [1] concerns the target Beta-lactamase L1 (Stenotrophomonas maltophilia) (UniProt P52700). As to the kind of experiment: Inhibition of Stenotrophomonas maltophilia L1 metallo beta lactamase at 200 uM.

Structures are written as SMILES.

Sequence of Beta-lactamase L1 (P52700 whole entry): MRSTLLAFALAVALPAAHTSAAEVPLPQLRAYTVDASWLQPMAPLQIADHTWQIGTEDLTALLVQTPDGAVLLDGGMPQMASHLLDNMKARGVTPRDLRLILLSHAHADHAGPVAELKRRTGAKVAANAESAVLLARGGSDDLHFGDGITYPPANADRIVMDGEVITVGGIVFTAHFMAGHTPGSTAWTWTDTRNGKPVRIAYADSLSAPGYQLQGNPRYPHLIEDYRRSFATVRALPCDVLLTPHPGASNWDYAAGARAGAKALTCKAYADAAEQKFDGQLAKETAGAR
Sequence of Beta-lactamase L1 (Stenotrophomonas maltophilia) (P52700 34-290 limits assumed): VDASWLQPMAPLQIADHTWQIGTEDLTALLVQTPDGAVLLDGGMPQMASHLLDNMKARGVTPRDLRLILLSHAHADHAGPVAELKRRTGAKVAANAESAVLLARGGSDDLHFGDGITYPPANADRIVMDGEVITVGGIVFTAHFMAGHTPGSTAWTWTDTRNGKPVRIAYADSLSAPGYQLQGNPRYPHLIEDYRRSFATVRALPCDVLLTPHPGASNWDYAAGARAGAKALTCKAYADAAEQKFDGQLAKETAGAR

A word on the Ki: it is a measure of affinity in units of concentration, obtained from inhibition or displacement. A low value points to higher affinity. As a reminder, the inhibition is how much of the control response was suppressed. A low value points to a weak effect. `O=C(COc1cccc2ccccc12)NC(CCS)C(=O)N[C@H](Cc1ccccc1)C(=O)O` (stereo partly specified) returned a Ki on Beta-lactamase L1 of 290 nM. The compound further yielded an inhibition in assay [1] of 81%.
Taken in the same sequence, the figures for `C[Si](C)(C)CCC(=O)NC(CCS)C(=O)N[C@H](Cc1ccccc1)C(=O)O` (stereo partly specified) were 520 nM and 81%.
On the same counts, the results for `O=C(CCC1CCCCC1)NC(CCS)C(=O)N[C@H](Cc1ccccc1)C(=O)O` (stereo partly specified) are 780 nM and 81%.
Taken in the same sequence, the figures for `O=C(Cc1cccc([N+](=O)[O-])c1)NC(CCS)C(=O)N[C@H](Cc1ccccc1)C(=O)O` (stereo partly specified) were 1030 nM and 81%.
For the compound `O=C(Cc1ccc(Br)cc1)NC(CCS)C(=O)N[C@H](Cc1ccccc1)C(=O)O` (stereo partly specified), at Beta-lactamase L1, affinity was put at a Ki of 350 nM. In addition, the inhibition in assay [1] was found to be 81%.
In turn, `O=C(Cc1cc([N+](=O)[O-])ccc1Cl)NC(CCS)C(=O)N[C@H](Cc1ccccc1)C(=O)O` (stereo partly specified) registered a Ki on Beta-lactamase L1 of 780 nM. The compound further displayed an inhibition in assay [1] of 81%.
Taken in the same sequence, the figures for `O=C(NC(CCS)C(=O)N[C@H](Cc1ccccc1)C(=O)O)c1cc2cc(Cl)ccc2[nH]1` (stereo partly specified) were 200 nM and 81%.
In turn, `O=C(NC(CCS)C(=O)N[C@H](Cc1ccccc1)C(=O)O)c1cc2cccc([N+](=O)[O-])c2[nH]1` (stereo partly specified) yielded a Ki on Beta-lactamase L1 of 150 nM. The compound also had an inhibition in assay [1] of 81%.
Taken in the same sequence, the figures for `Cc1cc(C(=O)NC(CCS)C(=O)N[C@H](Cc2ccccc2)C(=O)O)cc(C)c1OCc1ccccc1` (stereo partly specified) were 200 nM and 81%.
Compound `O=C(NC(CCS)C(=O)N[C@H](Cc1ccccc1)C(=O)O)c1c[nH]c(=O)c(Cl)c1` (stereo partly specified) had a Ki on Beta-lactamase L1 of 260 nM.
For the compound `O=C(NC(CCS)C(=O)N[C@H](Cc1ccccc1)C(=O)O)c1cc2cc(O)ccc2[nH]1` (stereo partly specified), affinity on Beta-lactamase L1 was put at a Ki of 570 nM. Moreover, the inhibition in assay [1] amounted to 81%.
Regarding `O=C(NC(CCS)C(=O)N[C@H](Cc1ccccc1)C(=O)O)c1ccc(-c2ccccc2[N+](=O)[O-])o1` (stereo partly specified), on Beta-lactamase L1, the affinity corresponds to a Ki of 160 nM. The compound also displayed an inhibition in assay [1] of 81%.
Taken in the same sequence, the figures for `O=C(NC(CCS)C(=O)N[C@H](Cc1ccccc1)C(=O)O)c1cc2cc(F)ccc2[nH]1` (stereo partly specified) were 12 nM and 81%.
Taken in the same sequence, the figures for `Cc1cc(C(=O)NC(CCS)C(=O)N[C@H](Cc2ccccc2)C(=O)O)cc(C)c1O` (stereo partly specified) were 540 nM and 81%.
On the same counts, the results for `O=C(NC(CCS)C(=O)N[C@H](Cc1ccccc1)C(=O)O)c1cc2ccccc2[nH]1` (stereo partly specified) are 290 nM and 81%.
As to `CC(=O)Nc1ccc(CC(=O)NC(CCS)C(=O)N[C@H](Cc2ccccc2)C(=O)O)cc1[N+](=O)[O-]` (stereo partly specified), the Ki on Beta-lactamase L1 was 390 nM. In addition, in assay [1], the inhibition is 81%.
